Values of other authors, collected in patent publication US9163009B2, “Salts of raltegravir” (priority 2011, dated 2015).

Experiments:
[1] = water
[2] = in vivo

SMILES: Cc1nnc(C(=O)NC(C)(C)c2nc(C(=O)NCc3ccc(F)cc3)c(O)c(=O)n2C)o1 [Raltegravir, N-(4-fluorobenzyl)-5-hydroxy-1-methyl-2-(1-methyl-1-{[(5-methyl-1,3,4-oxadiazol-2-yl)carbonyl]amino}ethyl)-6-oxo-1,6-dihydropyrimidine-4-carboxamide]
- aqueous solubility [1]: poor

SMILES: Cc1nnc(C(=O)NC(C)(C)c2nc(C(=O)NCc3ccc(F)cc3)c([O-])c(=O)n2C)o1.[K+] [Form 1]
- bioavailability over raltegravir [2]: superior bioavailability

SMILES: Cc1nnc(C(=O)NC(C)(C)c2nc(C(=O)NCc3ccc(F)cc3)c([O-])c(=O)n2C)o1.[K+] [potassium salt of raltegravir]
- aqueous solubility [1]: significantly more soluble
